According to US12435057B2, “Triazole carboxylic acids as LPA antagonists” (BRISTOL-MYERS SQUIBB COMPANY, priority 2019, dated 2025):
Structures can show the parent of a compound that is named as a salt.

These compounds were tested against T1, human LPA1 (Homo sapiens, UniProt Q92633) (assay: LPA1 functional antagonist assay (calcium flux)). Conditions: CHO cells overexpressing human LPA1; inhibition of calcium flux induced by 10 nM LPA; read-out: hLPA1 IC50.
T1 construct: expressed in transfected cells; host or cells: Chinese hamster ovary (CHO) cells
Type: cell-based
Procedure: The effectiveness of compounds of the present invention as LPA1 inhibitors can be determined in an LPA1 functional antagonist assay as follows: • Chinese hamster ovary cells overexpressing human LPA1 were plated overnight (15,000 cells/well) in poly-D-lysine coated 384-well microplates (Greiner bio-one, Cat #781946) in DMEM/F12 medium (Gibco, Cat #11039). Following overnight culture, cells were loaded with calcium indicator dye (AAT Bioquest Inc, Cat #34601) for 30 minutes at 37° C. The cells were then equilibrated to room temperature for 30 minutes before the assay. Test compounds solubilized in DMSO were transferred to 384 well non-binding surface plates (Corning, Cat #3575) using the Labcyte Echo acoustic dispense and diluted with assay buffer [[…] with calcium/magnesium (Gibco Cat #14025-092), 20 mM HEPES (Gibco Cat #15630-080) and 0.1% fatty acid free BSA (Sigma Cat #A9205)] to a final concentration of 0.5% DMSO. Diluted compounds were added to the cells by FDSS6000 (Hamamatsu) at final concentrations ranging from 0.08 nM to 5 μM. and were then incubated for 20 min at room temperature at which time LPA (Avanti Polar Lipids Cat #857130C) was added at final concentrations of 10 nM to stimulate the cells. The compound IC50 value was defined as the concentration of test compound which inhibited 50% of the calcium flux induced by LPA alone. IC50 values were determined by fitting data to a 4-parameter logistic equation (GraphPad Prism, San Diego CA). b. In Vivo Assays LPA Challenge with Plasma Histamine Evaluation.

T1 sequence (Q92633 whole entry): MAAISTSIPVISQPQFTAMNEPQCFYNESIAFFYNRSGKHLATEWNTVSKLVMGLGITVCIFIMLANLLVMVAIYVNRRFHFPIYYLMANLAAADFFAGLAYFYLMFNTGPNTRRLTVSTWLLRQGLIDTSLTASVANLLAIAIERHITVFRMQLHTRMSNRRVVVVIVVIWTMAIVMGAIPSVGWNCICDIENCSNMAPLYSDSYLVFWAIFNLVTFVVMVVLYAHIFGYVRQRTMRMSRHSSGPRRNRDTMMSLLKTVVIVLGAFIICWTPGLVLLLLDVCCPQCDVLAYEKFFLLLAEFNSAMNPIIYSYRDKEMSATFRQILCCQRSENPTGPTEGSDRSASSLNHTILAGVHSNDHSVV

IC50 [µM] | Compound
0.159 | Cc1nc(-c2nnn(C)c2CNc2nccc(-c3ccccn3)n2)ccc1OC1CCC2C(C(=O)O)C12 (mixture of isomers) [Example 48, (±)-(2R)-2-((2-Methyl-6-(1-methyl-54(4-(pyridin-2-yl)pyrimidin-2-yl)amino)methyl)-1H-1,2,3-triazol-4-yl)pyridin-3-yl)oxy)bicyclo[3.1.0]hexane-6-carboxylic Acid]
0.027 | Cc1nc(-c2nnn(C)c2COC(=O)N(C)CC2CCC2)ccc1O[C@@H]1C[C@H]2C[C@H]2[C@H](C(=O)O)C1 (racemic) [Example 1, (±)-(1R,2R,4R,6R)-4-((6-(5-((((cyclobutylmethyl)(methyl)carbamoyl)oxy)methyl)-1-methyl-1H-1,2,3-triazol-4-yl)-2-methylpyridin-3-yl)oxy)bicyclo[4.1.0]heptane-2-carboxylic Acid]
0.026 | Cc1nc(-c2nnn(C)c2COC(=O)N(C)CC2CCC2)ccc1O[C@H]1C[C@H]2C[C@H]2[C@H](C(=O)O)C1 (racemic) [Example 2, (±)-(1R,2R,4S,6R)-4-((6-(5-((((cyclobutylmethyl)(methyl)carbamoyl)oxy)methyl)-1-methyl-1H-1,2,3-triazol-4-yl)-2-methylpyridin-3-yl)oxy) bicyclo[4.1.0]heptane-2-carboxylic Acid]
0.04 | Cc1nc(-c2nnn(C)c2COC(=O)N(C)CC2CCC2)ccc1O[C@H]1CC2C[C@H]2[C@@H](C(=O)O)C1 (mixture of isomers) [Example 7, (±)-(1R,2S,4S,6R)-4-((6-(5-((((cyclobutylmethyl)(methyl)carbamoyl)oxy)methyl)-1-methyl-1H-1,2,3-triazol-4-yl)-2-methylpyridin-3-yl)oxy)bicyclo[4.1.0]heptane-2-carboxylic Acid]
0.188 | Cc1nc(-c2nnn(C)c2COC(=O)N(C)CC2CCC2)ccc1O[C@@H]1CCC[C@@]2(C(=O)O)C[C@@H]12 (racemic) [Example 10, (±)-(1R,5R,6R)-5-((6-(5-((((cyclobutylmethyl)(methyl)carbamoyl)oxy)methyl)-1-methyl-1H-1,2,3-triazol-4-yl)-2-methylpyridin-3-yl)oxy)bicyclo[4.1.0]heptane-1-carboxylic Acid]
0.931 | CCCN(C)C(=O)OCc1c(-c2ccc(O[C@@H]3COC[C@@H](C(=O)O)C3)c(C)n2)nnn1C (racemic) [Example 17, (±)-trans-5-((2-methyl-6-(1-methyl-5-(((methyl(propyl)carbamoyl)oxy)methyl)-1H-1,2,3-triazol-4-yl)pyridin-3-yl)oxy)tetrahydro-2H-pyran-3-carboxylic Acid, TFA Salt]
0.157 | CCCCCOC(=O)Nc1c(-c2ccc(O[C@H]3COC[C@H](C(=O)O)C3)c(C)n2)nnn1C (racemic) [Example 23, (±)-trans-5-((2-methyl-6-(1-methyl-5-(((pentyloxy)carbonyl)amino)-1H-1,2,3-triazol-4-yl)pyridin-3-yl)oxy)tetrahydro-2H-pyran-3-carboxylic Acid, TFA Salt]
0.42 | Cc1nc(-c2nnn(C)c2Cn2nnc(CC3CCCC3)n2)ccc1O[C@@H]1COC[C@@H](C(=O)O)C1 (racemic) [Example 24, (±)-trans-5-((6-(5-((5-(cyclopentylmethyl)-2H-tetrazol-2-yl)methyl)-1-methyl-1H-1,2,3-triazol-4-yl)-2-methylpyridin-3-yl)oxy)tetrahydro-2H-pyran-3-Carboxylic Acid, TFA Salt]
0.225 | Cc1nc(-c2nnn(C)c2COC(=O)N(C)CC2CCCC2)ccc1OC1COCC(C(=O)O)C1 (racemic) [Example 28, (±)-trans-5-((6-(5-((((cyclopentylmethyl)(methyl)carbamoyl)oxy)methyl)-1-methyl-1H-1,2,3-triazol-4-yl)-2-methylpyridin-3-yl)oxy)tetrahydro-2H-pyran-3-carboxylic Acid, TFA Salt]
0.263 | Cc1nc(-c2nnn(C)c2CNc2noc(CCC3CCC3)n2)ccc1O[C@@H]1CCO[C@@H](C(=O)O)C1 (racemic) [Example 33, (±)-trans-4-((6-(5-(((5-(2-cyclobutylethyl)-1,2,4-oxadiazol-3-yl)amino)methyl)-1-methyl-1H-1,2,3-triazol-4-yl)-2-methylpyridin-3-yl)oxy)tetrahydro-2H-pyran-2-carboxylic Acid]
0.019 | Cc1nc(-c2nnn(C)c2COC(=O)N(C)CC2CCC2)ccc1OC1CC[C@H]2C(C(=O)O)[C@@H]12 (mixture of isomers) [Example 41, (±)-(1S,2R,5R)-2-((6-(5-((((cyclobutylmethyl)(methyl)carbamoyl)oxy)methyl)-1-methyl-1H-1,2,3-triazol-4-yl)-2-methylpyridin-3-yl)oxy)bicyclo[3.1.0]hexane-6-carboxylic Acid]
0.191 | Cc1nc(-c2nnn(C)c2CNC(=O)OCC2CCC2)ccc1O[C@@H]1CCC2C(C(=O)O)C21 (mixture of isomers) [Example 47, (±)-(2R)-2-((6-(5-((((cyclobutylmethoxy)carbonyl)amino)methyl)-1-methyl-1H-1,2,3-triazol-4-yl)-2-methylpyridin-3-yl)oxy)bicyclo[3.1.0]hexane-6-carboxylic Acid]
0.162 | Cc1nc(-c2nnn(C)c2COC(=O)N(C)CC2CCC2)ccc1O[C@@H]1CC[C@H]2[C@@H](C(=O)O)[C@H]21 (racemic) [Example 49, (±)-(1S,2R,5R,6R)-2-((6-(5-((((Cyclobutylmethyl)(methyl)carbamoyl)oxy)methyl)-1-methyl-1H-1,2,3-triazol-4-yl)-2-methylpyridin-3-yl)oxy)bicyclo[3.1.0]hexane-6-carboxylic Acid]
0.105 | Cc1nc(-c2nnn(C)c2CNc2nccc(OC3CC3)n2)ccc1OC1CC[C@H]2C(C(=O)O)[C@@H]12 (mixture of isomers) [Example 50, (±)-(1S,2R,5R,6R)-2-((6-(5-(((4-Cyclopropoxypyrimidin-2-yl)amino)methyl)-1-methyl-1H-1,2,3-triazol-4-yl)-2-methylpyridin-3-yl)oxy)bicyclo[3.1.0]hexane-6-carboxylic Acid]
0.724 | CCCN(C)C(=O)OCc1c(-c2ccc(O[C@@H]3CC[C@H]4C(C(=O)O)[C@@H]34)c(C)n2)nnn1C (mixture of isomers) [Example 51, (±)-(1S,2R,5R,6R)-2-((2-methyl-6-(1-methyl-5-(((methyl(propyl)carbamoyl)oxy)methyl)-1H-1,2,3-triazol-4-yl)pyridin-3-yl)oxy)bicyclo[3.1.0]hexane-6-carboxylic Acid]
1.72 | Cc1nc(-c2nnn(C)c2NC(=O)OCC2CC2)ccc1O[C@@H]1CC[C@H]2C(C(=O)O)[C@@H]12 (mixture of isomers) [Example 52, (±)-(1S,2R,5R,6R)-2-((6-(5-(((cyclopropylmethoxy)carbonyl)amino)-1-methyl-1H-1,2,3-triazol-4-yl)-2-methylpyridin-3-yl)oxy)bicyclo[3.1.0]hexane-6-carboxylic Acid]
0.239 | CC(C)CN(C)C(=O)OCc1c(-c2ccc(O[C@@H]3CC[C@H]4C(C(=O)O)[C@@H]34)cn2)nnn1C (mixture of isomers) [Example 68, (±)-(1S,2R,5R,6R)-2-((6-(5-(((isobutyl(methyl)carbamoyl)oxy)methyl)-1-methyl-1H-1,2,3-triazol-4-yl)pyridin-3-yl)oxy)bicyclo[3.1.0]hexane-6-carboxylic Acid]
0.453 | CCCN(C)C(=O)OCc1c(-c2ccc(O[C@@H]3CC[C@H]4C(C(=O)O)[C@@H]34)cn2)nnn1C (mixture of isomers) [Example 69]
0.08 | CN(C(=O)OCc1c(-c2ccc(O[C@@H]3C[C@H](C(=O)O)C[C@@H]4C[C@@H]43)cn2)nnn1C)C1CCCC1 (racemic) [Example 72, (±)-(1 S,3R,5R,6S)-5-((6-(5-(((Cyclopentyl(methyl)carbamoyl)oxy)methyl)-1-methyl-1H-1,2,3-triazol-4-yl)pyridin-3-yl)oxy)bicyclo[4.1.0]heptane-3-carboxylic Acid]
0.06 | CN(C(=O)OCc1c(-c2ccc(OC3CCCC4C(C(=O)O)C34)cn2)nnn1C)C1CCCC1 (racemic) [Example 74, (±)-2-((6-(5-(((Cyclopentyl(methyl)carbamoyl)oxy)methyl)-1-methyl-1H-1,2,3-triazol-4-yl)pyridin-3-yl)oxy)bicyclo[4.1.0]heptane-7-carboxylic Acid]
0.016 | Cc1nc(-c2nnn(C)c2COC(=O)N(C)CC2CCC2)ccc1O[C@@H]1CC2C[C@H]2[C@H](C(=O)O)C1 (single isomer, unassigned) [Example 3]
0.907 | Cc1nc(-c2nnn(C)c2COC(=O)N(C)CC2CCC2)ccc1O[C@H]1C[C@@H]2C[C@@H]2[C@@H](C(=O)O)C1 (single isomer, unassigned) [Example 4]
0.028 | Cc1nc(-c2nnn(C)c2COC(=O)N(C)CC2CCC2)ccc1O[C@H]1CC2C[C@H]2[C@H](C(=O)O)C1 (single isomer, unassigned) [Example 5]
0.562 | Cc1nc(-c2nnn(C)c2COC(=O)N(C)CC2CCC2)ccc1O[C@@H]1C[C@@H]2C[C@@H]2[C@@H](C(=O)O)C1 (single isomer, unassigned) [Example 6]
0.026 | Cc1nc(-c2nnn(C)c2COC(=O)N(C)CC2CCC2)ccc1O[C@@H]1C[C@@H]2C[C@@H]2[C@H](C(=O)O)C1 (single isomer, unassigned) [Example 8]
